Results from US5071848A, “Tricyclic quinoline antineoplastic agents” (Abbott Laboratories, priority 1989, dated 1991).
≈ marks a conversion by molar mass, not a printed value. Entries after “also recorded” stand apart in the source; their conditions may differ. Like-named read-outs stand apart in the source and are kept apart here.

What was measured:
[1] = system: Lewis Lung Carcinoma (LLC1) cells; assay: In vitro cytotoxicity assay (three day MTT microtiter assay), LLC1; format: cell-based, murine; conditions: Mus musculus, LLC1, 72 h, read-out: In vitro tumor cell cytotoxicity (IC50), LLC1
Procedure: (§1) The cytotoxity of the compounds of the present invention is illustrated in Table 6. IC50 's were measured in a colorimetric assay for cytotoxic activity against cultured cells according to the protocol described below:
(§2) A three day microtiter assay is used to measure the growth inhibition of cultured cells exposed to a range of drug concentrations. Metabolic activity is measured by the cell's ability to reduce the tetrazolium dye, MTT (3-(4,5-dimethylthiazol-2-yl)-2,5-diphenyltetrazolium bromide) to a quantifiable colored end-product, which absorbs at 570 nm in the visible spectrum. Surviving cells reduce the MTT dye.
(§3) Test compounds are dissolved in dimethyl sulfoxide (DMSO) and diluted, first with Earle's Balanced Salt Solution, followed by culture medium, to twice the highest concentration of compound to be tested. From this concentrated stock, two-fold serial dilutions are prepared in 96-well microtiter trays, each well containing twice the desired final concentration of compound. Each concentration is tested in triplicate and compared to triplicate drug-free controls.
(§4) The cells are grown in the same medium used for diluting the compounds. After harvesting by trypsinization*, viable cell counts are determined and cell density is adjusted to 25,000 cells/mL. Inoculum (0.1 mL), containing the cells, is then added to each well for a final concentration of 2,500 cells per well. Addition of the inoculum dilutes the test compounds to the desired final concentration.
(§5) *Adherent cells are harvested by trypsinization as follows:
(§6) 1. Remove the medium by aspiration.
(§7) 2. Rinse cell monolayer twice with Earle's Balanced Salt Solution.
3. […]
4. When the cells have detached as determined by visual and/or microscopic observation, add medium containing fetal calf serum to stop the action of the trypsin and resuspend the cells. […]
After three days, 20 microtiters of 5 mg/mL MTT in phosphate-buffered saline solution is added to each well. […] DMSO is added to each well to dissolve the water insoluble, colored end product of the dye reduction so that it can be measured spectrophotometrically at 570 nm. […]

Hela cells = assay: In vitro cytotoxicity assay (three day MTT microtiter assay), Hela; format: cell-based; conditions: Homo sapiens, 72 h, read-out: In vitro tumor cell cytotoxicity (IC50), Hela
Procedure: (§8) IC50 's were measured in a colorimetric assay for cytotoxic activity against cultured cells according to the protocol described below:
as §2, §3, §4, §5, §6, §7
(§9) 3. Add trypsin (0.05%)/EDTA (0.53 mM). For each 25 cm^2 use approximately 0.2 mL of solution, tilt to cover the monolayer, then withdraw trypsin leaving only a thin film of solution. Incubate at room temperature until cell monolayer detaches.
(§10) 4. When the cells have detached as determined by visual and/or microscopic observation, add medium containing fetal calf serum to stop the action of the trypsin and resuspend the cells. Triturate to aid dissociation of cell clumps.
(§11) 5. Determine the number of cells per milliliter by electronic cell counter (e.g. Coulter Counter) or by mixing an aliquot of cell suspension with Trypan Blue (0.4% in normal saline) and counting the viable cells using a hemacytometer.
(§12) Microtiter trays are incubated for three days at 36° C. in a humidified atmosphere containing 5% carbon dioxide.
(§13) After three days, 20 microtiters of 5 mg/mL MTT in phosphate-buffered saline solution is added to each well. Trays are returned to the incubator for two to four hours to allow the surviving cells to reduce the dye. Medium and unreduced dye are removed by aspiration. DMSO is added to each well to dissolve the water insoluble, colored end product of the dye reduction so that it can be measured spectrophotometrically at 570 nm.

DNA topoisomerase II = assay: DNA Breakage Assay: topoisomerase II-mediated DNA breakage (linearized 32P-labeled PBR 322 plasmid, agarose gel); format: biochemical, calf; parameters: key to Topoisomerase II-mediated DNA breakage, extent of breakage: SB: strong breakage; MB: moderate breakage; WB: weak breakage; conditions: for Topoisomerase II-mediated DNA breakage, extent of breakage: at the concentration given; for Topoisomerase II-mediated DNA breakage, Concentration: concentration of compound which cleaves the DNA to smaller fragments, 30 minutes incubation
Procedure: Antitumor activity was assayed using the DNA Breakage Assay described below.
The DNA breakage assay requires two major reagents: DNA topoisomerase II and radiolabeled DNA. DNA topoisomerase II (topo II) was isolated from calf thymus as described by B. D. Holligan, et al. in J. Biol. Chem., 260, 2475-2482 (1985). Pure enzyme or partially purified extracts enriched in topo II activity may be used. PBR 322 plasmid was used as the DNA substrate. This plasmid, which is isolated in the closed circular form, is first linearized using, a restriction enzyme which cuts the plasmid in only one place. The newly exposed ends of the plasmid are then labeled with the radionuclide, 32P, using standard techniques described by T. Maniatis, et al. in "Molecular Cloning", Cold Spring Harbor Press, p. 115 (1982).
The enzyme and the radiolabeled DNA are added together first, then drug is added. After an incubation period of 30 minutes, the mixtures are quenched using 1% SDS. The mixtures are then subjected to agarose gel electrophoresis which separates the full length, linear substrate DNA from any small fragments that might be formed as a consequence of drug action. Smaller fragments run with a higher mobility. The distribution of the DNA species in the gel is assessed by autoradiography as described by T. Maniatis, et al. in "Molecular Cloning", Cold Spring Harbor Press, p. 115 (1982).
DNA breakage activity is assessed based on the level of substrate lost, the level of DNA appearing as smaller pieces running faster in the gel, and the distribution of these smaller pieces in the gel. The last criterion is important since drug-induced DNA cleavage that is enzyme-mediated fragmentation results in specific banding patterns due to the fact that the enzyme binds to specific sequences along the DNA molecule. A definite banding pattern is thus indicative of topo II-mediated cleavage and correlates well with anti-tumor activity.

P388 Leukemia = assay: In vivo antitumor activity, P388 Leukemia, increased lifespan; parameters: species or system BDF1 mice; conditions: IP, day 1 to day 5, survival monitored 30 days
Procedure: The in vivo data presented in Table 7 was determined in BDF1 mice for two murine cancer models, using 6 to 10 animals per test group. In the case of Lewis Lung carcinoma (LL) the mice are inoculated subcutaneously (SC) in the axillary region with a puncture in the inguinal area with the tumor on day 0. The compound being tested is administered intraperitoneally (IP) from day 1 to day 9 for a total of nine injections. The tumors are weighed on day 14 and the weight inhibition expressed as the median weight ratio of treated (T) to control (C) tumors. In the case of P388 Leukemia cells, a suspension of diluted ascites fluid (0.1 mL) containing 1×10^6 cells is implanted IP into the mice on day 0 and the compound being tested is administered IP from day 1 to day 5 for a total of five injections. Survival was monitored for 30 days and the increased lifespan expressed as median survival time of treated (T) to control (C) mice.

DNA topoisomerases = conditions: in words; known antitumor drugs; cited from earlier work
A549 cell line = assay: In vitro cytotoxicity assay (three day MTT microtiter assay), A549; format: cell-based; conditions: Homo sapiens, 72 h; A549, three days, MTT; read-out: In vitro tumor cell cytotoxicity (IC50), A549
Procedure: as §8, §2, §3, §4, §5, §6, §7, §9, §10, §11, §12, §13

[2] = system: P388.D1 leukemia cell line; assay: In vitro cytotoxicity assay (three day MTT microtiter assay), P388.D1; format: cell-based; conditions: Mus musculus, P388D1, 72 h, read-out: In vitro tumor cell cytotoxicity (IC50), P388.D1
Procedure: as §1, §2, §3, §4, §5, §6, §7, §9, §10, §11, §12
After three days, 20 microtiters of 5 mg/mL MTT in phosphate-buffered saline solution is added to each well. Trays are returned to the incubator for two to four hours to allow the surviving cells to reduce the dye. Medium and unreduced dye are removed by aspiration. DMSO is added to each well to dissolve the water insoluble, colored end product of the dye reduction so that it can be measured spectrophotometrically at 570 nm. The IC50 is determined as the concentration of compound tested required to reduce the absorbance at 570 nm to 50% of non-drug treated control values.
^c P388 D1 is a leukemia cell line.

Structure (SMILES)	Topoisomerase II-mediated DNA breakage, extent of breakage (DNA topoisomerase II)	Topoisomerase II-mediated DNA breakage, Concentration (DNA topoisomerase II) [µg/mL]	IC50 (Hela cells; Hela cells, three days, MTT) [mg/L]	IC50 [2] [mg/L]	further results
O=c1[nH]sc2c1c(=O)c1cc(F)c(N3CCNCC3)c(F)c1n2C1CC1 [Example 2]	SB	32	–	–	IC50 [1]: 0.99 mg/L (≈ 2.62 µM); IC50 (Hela cells; HeLa): 3.9 mg/L (≈ 10.3 µM)
O=c1[nH]sc2c1c(=O)c1cc(F)c(N3CCN(CCO)CC3)c(F)c1n2C1CC1 [Example 5]	MB	64	4 (≈ 9.47 µM)	–	P388 Leukemia % T/C, median lifespan of treated compared to control mice (P388 Leukemia; 2.5 mg/kg): 125%; P388 Leukemia % T/C, median lifespan of treated compared to control mice (P388 Leukemia; 5 mg/kg): 129%; P388 Leukemia % T/C, median lifespan of treated compared to control mice (P388 Leukemia; 10 mg/kg): 142%; P388 Leukemia % T/C, median lifespan of treated compared to control mice (P388 Leukemia; 12.5 mg/kg): 117%
COc1cc([C@@H]2c3cc4c(cc3[C@@H](O[C@@H]3O[C@@H]5CO[C@@H](c6cccs6)O[C@H]5[C@H](O)[C@H]3O)[C@H]3COC(=O)[C@H]23)OCO4)cc(OC)c1O [teniposide]	–	–	–	–	effect on DNA topoisomerase-mediated DNA breakage-rejoining / cleavage (DNA topoisomerases): found to affect the breakage-rejoining reaction of mammalian DNA mediated by DNA topoisomerases; also recorded: known to act by inducing topo II mediated DNA cleavage
O=c1[nH]sc2c1c(=O)c1cc(F)c(N3CCCC(O)C3)c(F)c1n2C1CC1 (stereo not drawn) [Example 9]	SB	32	–	2.05 (≈ 5.21 µM)	IC50 (A549 cell line): 3.9 mg/L (≈ 9.91 µM)
O=c1[nH]sc2c1c(=O)c1cc(F)c(N3CCCCC3)c(F)c1n2C1CC1 [Example 8]	MB	32	3.9 (≈ 10.3 µM)	–	–
O=c1[nH]sc2c1c(=O)c1cc(F)c(N3CCOCC3)c(F)c1n2C1CC1 [Example 1, 9-Cyclopropyl-6,8-difluoro-7-(1-morpholino)-2,3,4,9-tetrahydroisothiazolo[5,4-b]quinoline-3,4-dione]	SB	32	7 (≈ 18.5 µM)	–	P388 Leukemia % T/C, median lifespan of treated compared to control mice (P388 Leukemia; 31.25 mg/kg): 104%; P388 Leukemia % T/C, median lifespan of treated compared to control mice (P388 Leukemia; 62.5 mg/kg): 100%; P388 Leukemia % T/C, median lifespan of treated compared to control mice (P388 Leukemia; 125 mg/kg): 108%; P388 Leukemia % T/C, median lifespan of treated compared to control mice (P388 Leukemia; 250 mg/kg): 108%
CN1CCN(c2c(F)cc3c(=O)c4c(=O)[nH]sc4n(C4CC4)c3c2F)CC1 [Example 4]	SB	32	1.3 (≈ 3.31 µM)	–	–
O=C1c2c(O)ccc(O)c2C(=O)c2c(NCCNCCO)ccc(NCCNCCO)c21 [mitoxantrone]	–	–	–	–	effect on DNA topoisomerase-mediated DNA breakage-rejoining / cleavage (DNA topoisomerases): found to affect the breakage-rejoining reaction of mammalian DNA mediated by DNA topoisomerases
CCn1c2s[nH]c(=O)c2c(=O)c2cc(F)c(N3CCNCC3)c(F)c21 [Example 14]	MB	64	–	–	IC50 [1]: 1.5 mg/L (≈ 4.09 µM); IC50 (Hela cells; HeLa): 4 mg/L (≈ 10.9 µM)
O=c1[nH]sc2c1c(=O)c1cc(F)c(NC3CCN(Cc4ccccc4)CC3)c(F)c1n2C1CC1 [Example 13]	–	–	0.55 (≈ 1.14 µM)	–	–
NCC1CCN(c2c(F)cc3c(=O)c4c(=O)[nH]sc4n(C4CC4)c3c2F)C1 (stereo not drawn) [Example 12]	SB	32	–	< 0.05	IC50 (A549 cell line): 0.3 mg/L (≈ 0.764 µM)
O=c1[nH]sc2c1c(=O)c1cc(F)c(N3CCCNCC3)c(F)c1n2C1CC1 [Example 7]	SB	32	–	0.2 (≈ 0.51 µM)	–
O=c1[nH]sc2c1c(=O)c1cc(F)c(N3CCC(O)CC3)c(F)c1n2C1CC1 [Example 10]	SB	32	–	0.23 (≈ 0.585 µM)	IC50 (A549 cell line): 2.9 mg/L (≈ 7.37 µM); P388 Leukemia % T/C, median lifespan of treated compared to control mice (P388 Leukemia; 12.5 mg/kg): 129%; P388 Leukemia % T/C, median lifespan of treated compared to control mice (P388 Leukemia; 25 mg/kg): 133%; P388 Leukemia % T/C, median lifespan of treated compared to control mice (P388 Leukemia; 50 mg/kg): 133%; P388 Leukemia % T/C, median lifespan of treated compared to control mice (P388 Leukemia; 100 mg/kg): 117%
O=c1[nH]sc2c1c(=O)c1cc(F)c(N3CCSCC3)c(F)c1n2C1CC1 [Example 6]	SB	32	–	6.3 (≈ 15.9 µM)	IC50 (A549 cell line): 12.5 mg/L (≈ 31.6 µM)
